Data on five compounds can be found in patent US7696200B2, “Bicyclic sulfonamide derivatives which are L-CPT1 inhibitors” (Hoffmann-La Roche Inc., priority 2006, dated 2010).

In this assay the target is T1, L-CPT1 (human liver CPT1) (Homo sapiens, UniProt P50416).
T1 construct: made in house; host or cells: Pichia pastoris strain X-33 (pGAPZB/pGAPZA), crude cell-free extract
T1 sequence (P50416 1-773): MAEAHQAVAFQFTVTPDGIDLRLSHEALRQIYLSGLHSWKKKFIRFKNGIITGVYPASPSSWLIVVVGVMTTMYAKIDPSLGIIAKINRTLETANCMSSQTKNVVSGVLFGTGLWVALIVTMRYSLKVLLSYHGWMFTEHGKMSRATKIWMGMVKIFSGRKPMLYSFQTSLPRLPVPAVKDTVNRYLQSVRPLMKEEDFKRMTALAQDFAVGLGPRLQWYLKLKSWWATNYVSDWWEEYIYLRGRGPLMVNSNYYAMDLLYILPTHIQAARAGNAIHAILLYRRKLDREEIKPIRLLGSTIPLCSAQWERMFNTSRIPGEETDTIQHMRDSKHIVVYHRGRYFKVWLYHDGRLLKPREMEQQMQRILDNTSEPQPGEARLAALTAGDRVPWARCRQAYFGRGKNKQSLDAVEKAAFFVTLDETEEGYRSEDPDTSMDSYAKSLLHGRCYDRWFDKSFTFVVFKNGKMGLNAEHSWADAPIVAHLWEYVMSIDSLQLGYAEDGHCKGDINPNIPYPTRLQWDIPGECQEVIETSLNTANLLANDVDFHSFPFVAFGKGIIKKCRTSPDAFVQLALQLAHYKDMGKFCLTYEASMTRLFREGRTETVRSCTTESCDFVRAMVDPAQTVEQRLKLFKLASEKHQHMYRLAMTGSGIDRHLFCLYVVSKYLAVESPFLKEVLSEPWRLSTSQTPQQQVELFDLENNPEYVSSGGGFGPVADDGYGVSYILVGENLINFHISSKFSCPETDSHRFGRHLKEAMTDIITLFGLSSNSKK
Description: L-CPT1 inhibition, spectrophotometric CPT activity assay with DTNB (Ellman's reagent). The assay is classed as biochemical. The note with it: cell-free extracts of P. pastoris expressing human liver CPT1; carnitine 500 μM, palmitoyl-CoA 80 μM, DTNB 300 μM, pH 7.4. The method, then: The following tests were carried out in order to determine the activity of the compounds of the present invention. Background information on the performed assays can be found in: Jackson et al., 1999, Biochem. J. 341, 483-489 and Jackson et al., 2000, J. Biol. Chem. 275, 19560-19566.
Human liver and muscle CPT1 cDNAs and rat CPT2 cDNA were subcloned in pGAPZB or pGAPZA, respectively. These plasmids were used to transform P. pastoris strain X-33 via electroporation after the preparation of electrocompetent cells. High copy number clones were selected where necessary using 0.5 or 1 mg/ml Zeocin. Cultures for activity measurements were induced for 16 h in YPD medium (1% yeast extract, 2% peptone, 2% glucose). Crude cell extracts were prepared by disrupting the cells with glass beads or French Press, depending on fermenter sizes. After centrifugation, the cell-free extracts were resuspended in cell breaking buffer (50 mM Tris, pH7.4, 100 mM KCl, 1 mM EDTA) in the presence of a protease inhibitor cocktail, before aliquoting and freezing at −20° C.
CPT activity was measured using a spectrophotometric assay using 5,5′-dithio-bis-(2-nitrobenzoic acid) (DTNB) also called Ellman's reagent. The HS-CoA released on the formation of acylcarnitine from carnitine (500 μM) and palmitoyl-CoA (80 μM) reduced DTNB (300 μM) forming 5-mercapto-(2-nitrobenzoic acid) which absorbed at 410 nm with a molar extinction coefficient of 13600 M^−1.cm^−1. The assay buffer contained 120 mM KCl, 25 mM Tris, pH 7.4, 1 mM EDTA. This assay was used for the identification of selective inhibitors of the liver CPT1 isoform versus the muscle CPT1 and CPT2 isoforms.
Background: Ellman's reagent forms a yellow product with free thiols.

As to `COc1ccc(Cl)cc1S(=O)(=O)N1CCOc2ccc(C(=O)Nc3ccc(C(=O)O)c(F)c3)cc21` [Example 2, 4-{[4-(5-Chloro-2-methoxy-benzenesulfonyl)-3,4-dihydro-2H-benzo[1,4]oxazine-6-carbonyl]-amino}-2-fluoro-benzoic acid], half-maximal inhibition (IC50) was put at 78 nM. Take `COc1ccc(Cl)cc1S(=O)(=O)N1COc2ccc(C(=O)Nc3ccc(C(=O)O)c(F)c3)cc21` [Example 32, 4-{[3-(5-Chloro-2-methoxy-benzenesulfonyl)-2,3-dihydro-benzooxazole-5-carbonyl]-amino}-2-fluoro-benzoic acid]: the IC50 (commonly the concentration that gives 50% inhibition) was 140 nM. This IC50 lies about 1.8-fold higher than the previous one. Regarding `COc1ccc(Cl)cc1S(=O)(=O)N1COCc2ccc(C(=O)Nc3ccc(C(=O)O)cc3)cc21` [Example 73, 4-{[1-(5-Chloro-2-methoxy-benzenesulfonyl)-1,4-dihydro-2H-benzo[d][1,3]oxazine-7-carbonyl]-amino}-benzoic acid], the IC50 was found to be 56 nM. The compound `O=C(O)Cc1csc(NC(=O)c2ccc3c(c2)N(S(=O)(=O)c2cccc(Cl)c2)CCO3)n1` [Example 92, (2-{[4-(3-Chloro-benzenesulfonyl)-3,4-dihydro-2H-benzo[1,4]oxazine-6-carbonyl]-amino}-thiazol-4-yl)-acetic acid] showed an IC50 of 23 nM. In the case of `COc1ccc(Cl)cc1S(=O)(=O)N1CC(C(=O)O)Oc2ccc(C(=O)Nc3cccc(F)c3)cc21` (centres unmarked) [Example 113, 4-(5-Chloro-2-methoxy-benzenesulfonyl)-6-(3-fluoro-phenylcarbamoyl)-3,4-dihydro-2H-benzo[1,4]oxazine-2-carboxylic acid], the IC50 was 16 nM.
